Assay [1] concerns Mycolicibacterium smegmatis. The assay is described as follows: Antimicrobial activity against Mycobacterium smegmatis MTCC 943 at 50 ug/mL after 12 hrs by well diffusion method. The assay is classed as functional. The following applies: for zone of inhibition at 50 µg/mL: MTCC 943, 12 h, read-out: DIZ. In general terms: Agar diffusion results depend on both activity and mobility in agar.

The subject of assay [2] is Staphylococcus aureus. The assay is described as follows: Antimicrobial activity against Staphylococcus aureus MTCC 3160 at 100 ug/mL after 12 hrs by well diffusion method. In kind it is functional. The following applies: for zone of inhibition at 100 µg/mL: MTCC 3160, 12 h, read-out: DIZ.
Assay [3] concerns Pseudomonas aeruginosa. The assay is described as follows: Antimicrobial activity against Pseudomonas aeruginosa MTCC 4673 at 100 ug/mL after 12 hrs by well diffusion method. The assay is classed as functional. The following applies: for zone of inhibition at 100 µg/mL: MTCC 4673, 12 h, read-out: DIZ.
Assay [4] deals with Pseudomonas aeruginosa. The assay is described as follows: Antimicrobial activity against Pseudomonas aeruginosa MTCC 4673 at 50 ug/mL after 12 hrs by well diffusion method. The assay is classed as functional. The following applies: for zone of inhibition at 50 µg/mL: MTCC 4673, 12 h, read-out: DIZ.
Assay [5] has as its system Candida albicans. The assay is described as follows: Antimicrobial activity against Candida albicans MTCC 183 at 50 ug/mL after 12 hrs by well diffusion method. The assay is classed as functional. The following applies: for zone of inhibition at 50 µg/mL: MTCC 183, 12 h, read-out: DIZ.
For assay [6], the system named is Salmonella typhimurium. The assay is described as follows: Antimicrobial activity against Salmonella typhimurium MTCC 3732 at 50 ug/mL after 12 hrs by well diffusion method. In kind it is functional. The following applies: for diameter of the inhibition zone (DIZ): Salmonella enterica subsp. enterica serovar Typhimurium; for zone of inhibition at 50 µg/mL: Salmonella enterica, MTCC 3732, 12 h, read-out: DIZ.

Assay [7] has as its system Staphylococcus aureus. The following applies: MTCC 3160, 50 ug/mL.
Description: Antimicrobial activity against Staphylococcus aureus MTCC 3160 at 50 ug/mL after 12 hrs by well diffusion method
The subject of assay [8] is Salmonella typhimurium. The assay is described as follows: Antimicrobial activity against Salmonella typhimurium MTCC 3732 at 100 ug/mL after 12 hrs by well diffusion method. In kind it is functional. The following applies: for diameter of the inhibition zone (DIZ): Salmonella enterica subsp. enterica serovar Typhimurium; for zone of inhibition at 100 µg/mL: Salmonella enterica, MTCC 3732, 12 h, read-out: DIZ.

The subject of assay [9] is Candida albicans. The assay is described as follows: Antimicrobial activity against Candida albicans MTCC 183 at 100 ug/mL after 12 hrs by well diffusion method. The assay is classed as functional. The following applies: for zone of inhibition at 100 µg/mL: MTCC 183, 12 h, read-out: DIZ.
Assay [10] has as its system Mycolicibacterium smegmatis. The assay is described as follows: Antimicrobial activity against Mycobacterium smegmatis MTCC 943 at 100 ug/mL after 12 hrs by well diffusion method. The assay is classed as functional. The following applies: for zone of inhibition at 100 µg/mL: MTCC 943, 12 h, read-out: DIZ.
Assay [11] relates to Candida albicans. The assay is described as follows: Antimicrobial activity against Candida albicans MTCC 183 after 12 hrs by well diffusion method. The following applies: MTCC 183, 12 h. In kind it is functional.
Assay [12] concerns Mycolicibacterium smegmatis. The assay is described as follows: Antimicrobial activity against Mycobacterium smegmatis MTCC 943 after 12 hrs by well diffusion method. The assay is classed as functional. The following applies: MTCC 943, 12 h.
For assay [13], the system named is Staphylococcus aureus. The assay is described as follows: Antimicrobial activity against Staphylococcus aureus MTCC 3160 after 12 hrs by well diffusion method. The assay is classed as functional. The following applies: MTCC 3160, 12 h.
Assay [14] relates to Salmonella typhimurium. The assay is described as follows: Antimicrobial activity against Salmonella typhimurium MTCC 3732 after 12 hrs by well diffusion method. The following applies: Salmonella enterica, MTCC 3732, 12 h. The assay is classed as functional, Salmonella enterica subsp. enterica serovar Typhimurium.
The test system of assay [15] is Pseudomonas aeruginosa. The assay is described as follows: Antimicrobial activity against Pseudomonas aeruginosa MTCC 4673 after 12 hrs by well diffusion method. In kind it is functional. The following applies: MTCC 4673, 12 h.

Each structure is given as a SMILES string. Converted amounts (≈) assume the structure as drawn. The source made the active and inactive calls.

As for `CCOC(=O)c1cn(Cc2ccc(Cl)cc2Cl)c2cc(C(F)(F)F)ccc2c1=O`, the “diameter of the inhibition zone (DIZ)” value in assay [1], in [2], in assay [3], in assay [4], in [5] and in [6] was “inactive” throughout. Moreover, the “diameter of the inhibition zone (DIZ)” value in [8], in assay [9] and in assay [10] was “inactive” each time. The DIZ entry in assay [7] was “inactive”.

By MIC is commonly meant the smallest concentration in the dilution series that meets the test's criterion for growth inhibition. The low end stands for inhibition by little substance, the high end for a need for much substance. For `NNC(=O)c1cn(Cc2ccc(Cl)cc2Cl)c2cc(C(F)(F)F)ccc2c1=O`, the minimum inhibitory concentration (MIC) in [11] is 100 µg/mL (≈ 232 µM); in assay [12] it was 25 µg/mL (≈ 58.1 µM); in assay [13], 100 µg/mL (≈ 232 µM); in [14] it was above 100 µg/mL; in assay [15], 25 µg/mL (≈ 58.1 µM). Besides, the zone of inhibition at 50 µg/mL in assay [1] was found to be 9 mm; in assay [4] it was 8 mm. In addition, the zone of inhibition at 100 µg/mL came to 8 mm in assay [2], 8 mm in [3], 7 mm in assay [9] and 9 mm in assay [10]. In addition, the “diameter of the inhibition zone (DIZ)” value in [5], in assay [6] and in assay [8] was “inactive” each time. For the same compound, the DIZ result in assay [7] is “inactive”.

For the compound `C#CCn1cc(C(=O)O)c(=O)c2ccc(C(F)(F)F)cc21`, the minimum inhibitory concentration (MIC) is 25 µg/mL (≈ 84.7 µM) in assay [11]; 100 µg/mL (≈ 339 µM) in assay [12]; 100 µg/mL (≈ 339 µM) in [13]; 25 µg/mL (≈ 84.7 µM) in [14]; above 100 µg/mL in [15]. Besides, the “diameter of the inhibition zone (DIZ)” value in assay [1], in assay [3] and in assay [4] was “inactive” each time. Also, the zone of inhibition at 100 µg/mL in assay [2] turned out to be 10 mm; in [8], 8 mm; in assay [9], 12 mm; in [10], 7 mm. Also, the zone of inhibition at 50 µg/mL in assay [5] came to 12 mm; in assay [6], 8 mm. In addition, the DIZ entry in [7] was “inactive”.

In assay [11], `OC(Cn1cncn1)(Cn1cncn1)c1ccc(F)cc1F` [FLUCONAZOLE] gave a minimal inhibitory concentration (MIC) below 10 µg/mL. The zone of inhibition at 50 µg/mL in assay [5] came out at 26.3 mm. Moreover, the zone of inhibition at 100 µg/mL in assay [9] was 29 mm.

For `C#CCn1cc(C(=O)OCC)c(=O)c2cccc(C(F)(F)F)c21`, the “diameter of the inhibition zone (DIZ)” value in [1], in assay [2], in [3], in assay [4], in [5] and in [6] was “inactive” in each case. The “diameter of the inhibition zone (DIZ)” value in assay [8], in [9] and in assay [10] was “inactive” throughout. In assay [7], the DIZ result was “inactive”.

As for `C#CCn1cc(C(=O)NN)c(=O)c2cccc(C(F)(F)F)c21`, the “diameter of the inhibition zone (DIZ)” value in [1], in assay [2], in assay [3], in assay [4], in assay [5] and in assay [6] was “inactive” throughout. Further, the “diameter of the inhibition zone (DIZ)” value in [8], in [9] and in [10] was “inactive” each time. In addition, the DIZ result in assay [7] is “inactive”.

Turning to `N#Cc1ccc(Cn2cc(C(=O)O)c(=O)c3ccc(C(F)(F)F)cc32)cc1`, the minimum inhibitory concentration (MIC) in [11] was 50 µg/mL (≈ 134 µM); in assay [12], above 100 µg/mL; in assay [13] it was above 100 µg/mL; in assay [14], above 100 µg/mL; in assay [15] it was 25 µg/mL (≈ 67.1 µM). In addition, the “diameter of the inhibition zone (DIZ)” value in [1], in assay [2], in assay [6], in assay [8] and in assay [10] was “inactive” in each case. The zone of inhibition at 100 µg/mL in assay [3] was determined as 8 mm; in assay [9] it was 8.33 mm. The results for the zone of inhibition at 50 µg/mL in [4] and in [5] were 8 mm and 7.6 mm, respectively. For the same compound, the DIZ result in assay [7] was “inactive”.

Consider `O=C(O)c1cn(Cc2ccc(Cl)cc2Cl)c2cc(C(F)(F)F)ccc2c1=O`, for which the minimal inhibitory concentration (MIC) was 50 µg/mL (≈ 120 µM) in assay [11]; above 100 µg/mL in [12]; 100 µg/mL (≈ 240 µM) in [13]; above 100 µg/mL in assay [14]; above 100 µg/mL in assay [15]. The “diameter of the inhibition zone (DIZ)” value in assay [1], in [3], in assay [4], in assay [5], in assay [6] and in assay [8] was “inactive” in each case. In [10], the “diameter of the inhibition zone (DIZ)” value is “inactive”. In addition, the zone of inhibition at 100 µg/mL in assay [2] is 10 mm; in [9] it was 7 mm. The DIZ result in [7] is “inactive”.

Turning to `CCOC(=O)c1cn(Cc2ccc(C#N)cc2)c2c(C(F)(F)F)cccc2c1=O`, the “diameter of the inhibition zone (DIZ)” value in assay [1], in assay [2], in [3], in assay [4], in assay [5] and in [6] was “inactive” throughout. For the same compound, the “diameter of the inhibition zone (DIZ)” value in assay [8], in [9] and in [10] was “inactive” each time. In assay [7], the DIZ result was “inactive”.

Take `O=C(O)c1cn(Cc2ccc(Cl)cc2Cl)c2c(C(F)(F)F)cccc2c1=O`: the MIC is 50 µg/mL (≈ 120 µM) in assay [11]; 25 µg/mL (≈ 60.1 µM) in assay [12]; 100 µg/mL (≈ 240 µM) in assay [13]; above 100 µg/mL in assay [14]; 25 µg/mL (≈ 60.1 µM) in [15]. Further, the zone of inhibition at 50 µg/mL in assay [1] stood at 11 mm; in assay [4], 13.6 mm; in assay [5], 7 mm. Also, the zone of inhibition at 100 µg/mL is 9 mm in assay [2], 14 mm in [3], 9 mm in assay [9] and 12 mm in [10]. The “diameter of the inhibition zone (DIZ)” value in [6] and in assay [8] was “inactive” in each case. Also, the DIZ result in assay [7] is “inactive”.

As for `C#CCn1cc(C(=O)OCC)c(=O)c2ccc(C(F)(F)F)cc21`, the MIC in [11] is 100 µg/mL (≈ 309 µM); in [12], 100 µg/mL (≈ 309 µM); in assay [13], 100 µg/mL (≈ 309 µM); in assay [14], 25 µg/mL (≈ 77.3 µM); in [15], 50 µg/mL (≈ 155 µM). For the same compound, the “diameter of the inhibition zone (DIZ)” value in assay [1] and in assay [5] was “inactive” each time. For the same compound, the zone of inhibition at 100 µg/mL in assay [2] worked out at 9 mm; in [3] it was 8 mm; in assay [8], 11 mm; in assay [9] it was 8.33 mm; in [10] it was 9 mm. Moreover, the zone of inhibition at 50 µg/mL is 7 mm in assay [4] and 10.3 mm in assay [6]. Further, in [7], the DIZ result is “inactive”.

As to `N#Cc1ccc(Cn2cc(C(=O)O)c(=O)c3cccc(C(F)(F)F)c32)cc1`, the minimum inhibitory concentration (MIC) in assay [11] was 100 µg/mL (≈ 269 µM); in assay [12] it was above 100 µg/mL; in assay [13], 100 µg/mL (≈ 269 µM); in assay [14], above 100 µg/mL; in assay [15] it was 25 µg/mL (≈ 67.1 µM). In addition, the “diameter of the inhibition zone (DIZ)” value in assay [1], in assay [5], in [6], in [8] and in assay [10] was “inactive” in each case. In addition, the zone of inhibition at 100 µg/mL in assay [2], in [3] and in [9] was 8 mm each time. Further, in assay [4], the zone of inhibition at 50 µg/mL is 8 mm. Besides, the DIZ entry in assay [7] is “inactive”.

On to `C#CCn1cc(C(=O)O)c(=O)c2cccc(C(F)(F)F)c21`, for which the “diameter of the inhibition zone (DIZ)” value in assay [1], in assay [2], in assay [3], in assay [4], in assay [5] and in [6] was “inactive” each time. For the same compound, the “diameter of the inhibition zone (DIZ)” value in [8], in assay [9] and in assay [10] was “inactive” each time. Also, the DIZ entry in [7] is “inactive”.
